target: T1, TLR7 (Homo sapiens, UniProt Q9NYK1); experiment: huPBMC TLR7 Antagonist IFNα Assay; assay type: cell-based; settings: human PBMCs stimulated with ssRNA40 10 μg/mL (DOTAP), 14-16 hrs; IFNα2b AlphaLISA read-out
T1 construct: Fresh blood was collected from normal human donors; endogenous in cells; host or cells: human PBMCs from fresh donor blood
T1 sequence (Q9NYK1 27-1049): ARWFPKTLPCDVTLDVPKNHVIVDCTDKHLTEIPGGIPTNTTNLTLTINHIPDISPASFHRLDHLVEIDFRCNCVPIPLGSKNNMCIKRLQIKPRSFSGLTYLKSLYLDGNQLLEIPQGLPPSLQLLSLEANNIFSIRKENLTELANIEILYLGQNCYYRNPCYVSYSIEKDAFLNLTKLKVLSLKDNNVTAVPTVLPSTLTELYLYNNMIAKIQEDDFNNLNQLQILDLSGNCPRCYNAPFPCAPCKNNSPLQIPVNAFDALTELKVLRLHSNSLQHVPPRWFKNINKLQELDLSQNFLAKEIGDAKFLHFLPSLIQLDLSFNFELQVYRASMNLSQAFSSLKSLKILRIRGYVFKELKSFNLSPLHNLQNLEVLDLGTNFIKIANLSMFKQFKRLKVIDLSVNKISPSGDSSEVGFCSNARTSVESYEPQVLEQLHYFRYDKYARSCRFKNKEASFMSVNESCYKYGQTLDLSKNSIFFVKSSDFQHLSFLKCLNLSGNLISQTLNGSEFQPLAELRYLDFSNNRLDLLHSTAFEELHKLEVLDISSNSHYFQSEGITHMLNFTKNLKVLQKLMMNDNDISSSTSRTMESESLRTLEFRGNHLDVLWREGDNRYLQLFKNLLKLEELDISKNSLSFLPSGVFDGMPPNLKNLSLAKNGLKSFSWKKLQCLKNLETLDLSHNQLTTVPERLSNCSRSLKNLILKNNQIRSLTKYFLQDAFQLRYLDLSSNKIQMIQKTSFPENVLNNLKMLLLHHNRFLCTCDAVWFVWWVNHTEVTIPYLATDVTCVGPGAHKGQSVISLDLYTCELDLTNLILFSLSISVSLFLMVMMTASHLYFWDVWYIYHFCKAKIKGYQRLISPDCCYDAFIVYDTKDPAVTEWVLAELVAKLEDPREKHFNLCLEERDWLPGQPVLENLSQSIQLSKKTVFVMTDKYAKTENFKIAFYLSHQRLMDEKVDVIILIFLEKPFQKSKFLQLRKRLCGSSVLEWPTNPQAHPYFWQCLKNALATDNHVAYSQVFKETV
Procedure: Compounds were generally serially diluted (1/3) in DMSO and plated on sterile 384 well tissue culture plates and stored until ready for use. Each ten-point dilution was typically plated in triplicate in parallel rows.
Fresh blood was collected from normal human donors underwritten informed consent in heparinized syringes on the morning of the assay. The blood was diluted in RPMI-1640 medium and the white blood cells were separated from red blood cells by centrifugation (800 g 15′ 0 acceleration, 0 brake) on a Ficoll cushion. Peripheral blood mononuclear cells (PBMCs) were separated from platelets by a series of low-speed centrifugations (1000RPM 10′) in PBS+5% HI—FBS and 1 mM EDTA. Purified PBMCs were re-suspended in assay medium (RPMI-1640 w Glutamax (Invitrogen) supplemented with 5% HI—FBS, 10 mM HEPES, 50 uM β-mercaptoethanol, and 100 mG/L penicillin/streptomycin cocktail). Viable PBMCs were counted on a hemacytometer and kept on ice until ready for plating.
A 4× concentration (4 ug/ml or 40 ug/ml for TLR8 or TLR7 assays, respectively) of the TLR7/8 agonist ssRNA40 (IDT) was complexed with 10% DOTAP (Roche) in assay medium for 30 min prior to addition to the PBMC suspension (5 million cells/ml). After addition, the final concentration of ssRNA40 in the TLR7/8 stimulated PBMC suspension was 1 μg/ml for TLR8 assay, and 10 μg/mL for the TLR7 assay. The final DOTAP concentration was 2.5%. Diluted PBMCs (5 million cells/ml) were treated with 4×TLR9 agonist ODN2216 (Invivogen). Final concentration of ODN2216 in TLR9 stimulated PBMC suspension was 0.3 μM.
Agonist stimulated PBMCs were plated on the compound treated 384 well plates at 150,000 cells/well. Un-stimulated PBMCs were plated as controls on each plate. Plating volume was 40 μL per well. DMSO concentration in each well was 0.25%.
A separate plate, without compounds, with titrations of ssRNA40 and ODN2216 was included in every assay to measure agonist response of each donor's PBMC prep. Assay plates were placed in a tissue culture incubator (37° C., 5% CO2) for 14-16 hrs. After this incubation, the plates were centrifuged and stored at −20° C. until they were assayed.
IL-6 TR-FRET Assay for TLR8 activity: • 1) Cisbio Human IL-6 kit, 20,000 tests (62TNFPEC), and GNF High-Base TC 384 well plates (cat #789163G) were used; • 2) the Anti-TIL-6 Cryptate conjugate and the Anti-IL-6 XL665 conjugate were diluted 1:20 in Reconstitution Buffer; • 3) a 1:1 mixture of 3 μl/well Anti-IL-6 Cryptate conjugate and 3 μl/well Anti-IL-6 XL665 conjugate was prepared; • 4) 6 μl/well HTRF dilution mastermix was added to 6 μl of transferred supernatant samples in proxiplates; • 5) The plates were incubated for 3 hrs at rt in the dark; and • 6) the levels of IL-6 production was measured using an Envision plate reader (665 nm (emmission)/590 nm (excitation)) with HTRF settings and ratiometric read-out: (XL665 emission/Eu Cryptate emission)×10,000. IFNα2b AlphaLISA Assay for TLR7 or TLR9 activity After thawing the assay plates, 6 μL of supernatant samples were transferred to a low-volume AlphaPlate 384SW (Perkin-Elmer). The concentration of IFNα in supernatants was measured using the IFNα2b AlphaLISA Assay (Perkin-Elmer: AL297F). 3 μL of IFNα acceptor beads/biotinylated antibody solution was added first, using laboratory automation. After an hour incubation, […] of streptavidin […] bead solution was added. The plates containing this mixture were incubated in the dark for an hour and read on an appropriate plate reader at reading parameters set by the manufacturer. (Envision, EnSpire: Perkin-Elmer).

Structure (SMILES)	IC50
Cc1cc(N2CCc3c(c(C)nn3CC34CCC(N)(CC3)CC4)C2)c2ccncc2n1 [Compound No. 3, 4-((3-methyl-5-(2-methyl-1,7-naphthyridin-4-yl)-4,5,6,7-tetrahydro-1H-pyrazolo[4,3-c]pyridin-1-yl)methyl)bicyclo[2.2.2]octan-1-amine]	54 nM
Cc1cc(N2CCc3c(c(C)nn3CC34CCC(NC5COC5)(CC3)CC4)C2)c2cnn(C)c2n1 [Compound No. 6, N-(4-((5-(1,6-dimethyl-1H-pyrazolo[3,4-b]pyridin-4-yl)-3-methyl-4,5,6,7-tetrahydro-1H-pyrazolo[4,3-c]pyridin-1-yl)methyl)bicyclo[2.2.2]octan-1-yl)oxetan-3-amine]	19 nM
Cc1cc(N2CCc3c(c(C)nn3CC34CCC(NC(=O)[C@@H]5COCCN5)(CC3)CC4)C2)c2cnn(C)c2n1 [Compound No. 8, (S)—N-(4-((5-(1,6-dimethyl-1H-pyrazolo[3,4-b]pyridin-4-yl)-3-methyl-4,5,6,7-tetrahydro-1H-pyrazolo[4,3-c]pyridin-1-yl)methyl)bicyclo[2.2.2]octan-1-yl)morpholine-3-carboxamide]	4 nM
Cc1cc(N2CCc3c(c(C)nn3CC34CCC(NC(=O)[C@H]5COCCN5)(CC3)CC4)C2)c2cnn(C)c2n1 [Compound No. 9, (R)—N-(4-((5-(1,6-dimethyl-1H-pyrazolo[3,4-b]pyridin-4-yl)-3-methyl-4,5,6,7-tetrahydro-1H-pyrazolo[4,3-c]pyridin-1-yl)methyl)bicyclo[2.2.2]octan-1-yl)morpholine-3-carboxamide]	15 nM
Cc1nc(N2CCc3c(c(C)nn3CC34CCC(N5CC6(COC6)C5)(CC3)CC4)C2)c2c(n1)c(C)nn2C [Compound No. 10, 6-(4-((3-methyl-5-(1,3,5-trimethyl-1H-pyrazolo[4,3-d]pyrimidin-7-yl)-4,5,6,7-tetrahydro-1H-pyrazolo[4,3-c]pyridin-1-yl)methyl)bicyclo[2.2.2]octan-1-yl)-2-oxa-6-azaspiro[3.3]heptane]	56 nM
Cc1nc(N2CCc3c(c(C)nn3CC34CCC(N)(CC3)CC4)C2)c2c(n1)c(C)nn2C [Compound No. 26, 4-((3-methyl-5-(1,3,5-trimethyl-1H-pyrazolo[4,3-d]pyrimidin-7-yl)-4,5,6,7-tetrahydro-1H-pyrazolo[4,3-c]pyridin-1-yl)methyl)bicyclo[2.2.2]octan-1-amine]	644 nM
Cc1cc(N2CCc3c(c(C)nn3CC34CCC(N(C)C)(CC3)CC4)C2)c2cnn(C)c2n1 [Compound No. 43, 4-((5-(1,6-dimethyl-1H-pyrazolo[3,4-b]pyridin-4-yl)-3-methyl-4,5,6,7-tetrahydro-1H-pyrazolo[4,3-c]pyridin-1-yl)methyl)-N,N-dimethylbicyclo[2.2.2]octan-1-amine]	16 nM
Cc1cc(N2CCc3c(c(C)nn3CC34CCC(N5CCN(C)C(=O)C5)(CC3)CC4)C2)c2cnn(C)c2n1 [Compound No. 104, 4-(4-((5-(1,6-dimethyl-1H-pyrazolo[3,4-b]pyridin-4-yl)-3-methyl-4,5,6,7-tetrahydro-1H-pyrazolo[4,3-c]pyridin-1-yl)methyl)bicyclo[2.2.2]octan-1-yl)-1-methylpiperazin-2-one]	61 nM
Cc1cc(N2CCc3c(c(C)nn3CC34CCC(N5CCN(C)CC5=O)(CC3)CC4)C2)c2cnn(C)c2n1 [Compound No. 108, 1-(4-((5-(1,6-dimethyl-1H-pyrazolo[3,4-b]pyridin-4-yl)-3-methyl-4,5,6,7-tetrahydro-1H-pyrazolo[4,3-c]pyridin-1-yl)methyl)bicyclo[2.2.2]octan-1-yl)-4-methylpiperazin-2-one]	21 nM
Cc1cc(N2CCc3c(c(C)nn3CC34CCC(n5ccnc5)(CC3)CC4)C2)c2cnn(C)c2n1 [Compound No. 119, 1-((4-(1H-imidazol-1-yl)bicyclo[2.2.2]octan-1-yl)methyl)-5-(1,6-dimethyl-1H-pyrazolo[3,4-b]pyridin-4-yl)-3-methyl-4,5,6,7-tetrahydro-1H-pyrazolo[4,3-c]pyridine]	6 nM
Cc1cc(N2CCc3c(c(C)nn3CC34CCC(NC(=O)CN5CC(F)C5)(CC3)CC4)C2)c2cnn(C)c2n1 [Compound No. 133, N-(4-((5-(1,6-dimethyl-1H-pyrazolo[3,4-b]pyridin-4-yl)-3-methyl-4,5,6,7-tetrahydro-1H-pyrazolo[4,3-c]pyridin-1-yl)methyl)bicyclo[2.2.2]octan-1-yl)-2-(3-fluoroazetidin-1-yl)acetamide]	12 nM
Cc1cc(N2CCc3c(c(C)nn3CC34CCC(NC(=O)CO)(CC3)CC4)C2)c2cnn(C)c2n1 [Compound No. 135, N-(4-((5-(1,6-dimethyl-1H-pyrazolo[3,4-b]pyridin-4-yl)-3-methyl-4,5,6,7-tetrahydro-1H-pyrazolo[4,3-c]pyridin-1-yl)methyl)bicyclo[2.2.2]octan-1-yl)-2-hydroxyacetamide]	10 nM
Cc1cc(N2CCc3c(c(C)nn3CC34CCC(NC(=O)CN5CC(O)C5)(CC3)CC4)C2)c2cnn(C)c2n1 [Compound No. 136, N-(4-((5-(1,6-dimethyl-1H-pyrazolo[3,4-b]pyridin-4-yl)-3-methyl-4,5,6,7-tetrahydro-1H-pyrazolo[4,3-c]pyridin-1-yl)methyl)bicyclo[2.2.2]octan-1-yl)-2-(3-hydroxyazetidin-1-yl)acetamide]	6 nM
[2H]C([2H])([2H])n1ncc2c(N3CCc4c(c(C)nn4CC45CCC(N)(CC4)CC5)C3)cc(C)nc21 [Compound No. 140, 4-((3-methyl-5-(6-methyl-1-(methyl-d3)-1H-pyrazolo[3,4-b]pyridin-4-yl)-4,5,6,7-tetrahydro-1H-pyrazolo[4,3-c]pyridin-1-yl)methyl)bicyclo[2.2.2]octan-1-amine]	27 nM
Cc1cc(N2CCc3c(c(C)nn3CC34CCC(NC(=O)OC(C)(C)C)(CC3)CC4)C2)c2ccncc2n1 [Compound No. 147, tert-butyl (4-((3-methyl-5-(2-methyl-1,7-naphthyridin-4-yl)-4,5,6,7-tetrahydro-1H-pyrazolo[4,3-c]pyridin-1-yl)methyl)bicyclo[2.2.2]octan-1-yl)carbamate]	33 nM

Reference: patent US20240376099A1, “COMPOUNDS AND COMPOSITIONS AS INHIBITORS OF ENDOSOMAL TOLL-LIKE RECEPTORS” (Novartis AG, priority 2016, published 2024)
